Measured values taken from ChEMBL document CHEMBL4725353, “Discovery of Pyrido[2,3-b]indole Derivatives with Gram-Negative Activity Targeting Both DNA Gyrase and Topoisomerase IV” (J Med Chem, 2020).
Converted amounts (≈) assume the structure as drawn. The source made the active and inactive calls. The rule behind the calls is not given here.

Experiments:
[1] = Distribution coefficient between octanol and buffer, log D of the compound in pH 7.4 buffer by CAMDIS assay; format: physicochemical
physchem [2] = experiment: physchem
Description: Ionization constant (acid), pKa of the compound by photometric titration assay

Escherichia coli [3] = experiment: microbe, parasite or virus in culture; settings: ATCC 29213
Description: Antibacterial activity against Escherichia coli ATCC 29213 assessed as reduction in microbial growth preincubated for 20 to 24 hrs followed by subculture in absence of compound and measured on day 4 CLSI based broth microdilution susceptibility method

Escherichia coli [4] = experiment: microbe, parasite or virus in culture; settings: ATCC 25922
Description: Antibacterial activity against Escherichia coli ATCC 25922 assessed as reduction in microbial growth preincubated for 20 to 24 hrs followed by subculture in absence of compound and measured on day 4 CLSI based broth microdilution susceptibility method

[5] = Dissociation constant, pKa of compound by photometric titration assay; format: physicochemical
[6] = Intrinsic clearance in mouse hepatocytes by LC/MS-MS analysis; format: ADME, cell-based, Hepatocyte
[7] = Protein binding in plasma (unknown origin) assessed as unbound fraction at 1 uM after 5 hrs by LC/MS-MS analysis; format: ADME, cell-free
in vitro = settings: mouse, liver microsomes
Description: Intrinsic clearance in mouse liver microsomes preincubated for 10 mins followed by NADPH regenerating system addition and measured up to 30 mins by LC/MS-MS analysis

physchem [8] = settings: PBS, pH 6.5
Description: Solubility of compound in PBS at pH 6.5 incubated for over night by HPLC-UV based lyophilization solubility assay

Escherichia coli [9] = experiment: Antibacterial activity against Escherichia coli ATCC 35218 assessed as reduction in microbial growth preincubated for 20 to 24 hrs followed by subculture in absence of compound and measured on day 4 CLSI based broth microdilution susceptibility method; format: functional; settings: time hrs 20-24
Escherichia coli [10] = experiment: Antibacterial activity against Escherichia coli ATCC BAA-2340 assessed as reduction in microbial growth preincubated for 20 to 24 hrs followed by subculture in absence of compound and measured on day 4 CLSI based broth microdilution susceptibility method; format: functional; settings: time hrs 20-24
Klebsiella pneumoniae [11] = experiment: Antibacterial activity against Klebsiella pneumoniae ATCC 10031 assessed as reduction in microbial growth preincubated for 20 to 24 hrs followed by subculture in absence of compound and measured on day 4 CLSI based broth microdilution susceptibility method; format: functional; settings: time hrs 20-24
Klebsiella pneumoniae [12] = experiment: Antibacterial activity against Klebsiella pneumoniae ATCC 700603 assessed as reduction in microbial growth preincubated for 20 to 24 hrs followed by subculture in absence of compound and measured on day 4 CLSI based broth microdilution susceptibility method; format: functional; settings: time hrs 20-24
Klebsiella pneumoniae [13] = experiment: Antibacterial activity against Klebsiella pneumoniae ATCC BAA-2146 assessed as reduction in microbial growth preincubated for 20 to 24 hrs followed by subculture in absence of compound and measured on day 4 CLSI based broth microdilution susceptibility method; format: functional; settings: time hrs 20-24
Acinetobacter baumannii [14] = experiment: Antibacterial activity against Acinetobacter baumannii ATCC 19606 assessed as reduction in microbial growth preincubated for 20 to 24 hrs followed by subculture in absence of compound and measured on day 4 CLSI based broth microdilution susceptibility method; format: functional; settings: time hrs 20-24
Acinetobacter baumannii [15] = experiment: Antibacterial activity against Acinetobacter baumannii ATCC 51432 assessed as reduction in microbial growth preincubated for 20 to 24 hrs followed by subculture in absence of compound and measured on day 4 CLSI based broth microdilution susceptibility method; format: functional; settings: time hrs 20-24
Acinetobacter baumannii [16] = experiment: Antibacterial activity against Acinetobacter baumannii ATCC BAA-747 assessed as reduction in microbial growth preincubated for 20 to 24 hrs followed by subculture in absence of compound and measured on day 4 CLSI based broth microdilution susceptibility method; format: functional; settings: time hrs 20-24
Pseudomonas aeruginosa [17] = experiment: Antibacterial activity against Pseudomonas aeruginosa PAO1 assessed as reduction in microbial growth preincubated for 20 to 24 hrs followed by subculture in absence of compound and measured on day 4 CLSI based broth microdilution susceptibility method; format: functional; settings: time hrs 20-24
Pseudomonas aeruginosa [18] = experiment: Antibacterial activity against Pseudomonas aeruginosa ATCC 27853 assessed as reduction in microbial growth preincubated for 20 to 24 hrs followed by subculture in absence of compound and measured on day 4 CLSI based broth microdilution susceptibility method; format: functional; settings: time hrs 20-24
Pseudomonas aeruginosa [19] = experiment: Antibacterial activity against Pseudomonas aeruginosa ATCC BAA-2113 assessed as reduction in microbial growth preincubated for 20 to 24 hrs followed by subculture in absence of compound and measured on day 4 CLSI based broth microdilution susceptibility method; format: functional; settings: time hrs 20-24
[20] = Cmax/dose in iv dosed CD-1 mouse measured up to 24 hrs by LC-MS/MS analysis; format: ADME, organism-based; settings: in vivo
[21] = AUC/dose in iv dosed CD-1 mouse measured up to 24 hrs by LC-MS/MS analysis; format: ADME, organism-based; settings: in vivo
[22] = Clearance in iv dosed CD-1 mouse measured up to 24 hrs by LC-MS/MS analysis; format: ADME, organism-based; settings: in vivo
[23] = Half life in iv dosed CD-1 mouse measured up to 24 hrs by LC-MS/MS analysis; format: ADME, organism-based; settings: in vivo
[24] = Volume of distribution at steady state in iv dosed CD-1 mouse measured up to 24 hrs by LC-MS/MS analysis; format: ADME, organism-based; settings: in vivo, read-out: Vdss
[25] = Plasma protein binding in iv dosed CD-1 mouse measured up to 24 hrs by LC-MS/MS analysis; format: ADME, organism-based; settings: read-out: PPB (converted)
Escherichia coli [26] = experiment: Antibacterial activity against Escherichia coli ATCC 25922 infected in ICR mouse model of neutropenic thigh infection assessed as reduction in microbial growth at 10 to 25 mg/kg, iv and measured after 12 hrs; format: functional, organism-based; settings: dose mg/kg 10-25, time 12.0 hrs
Escherichia coli [27] = experiment: Antibacterial activity against Escherichia coli ATCC 25922 infected in ICR mouse model of neutropenic thigh infection assessed as reduction in microbial growth at 40 to 45 mg/kg, iv bid for 12 hrs; format: functional, organism-based
Escherichia coli [28] = experiment: Antibacterial activity against Escherichia coli ATCC 25922 infected in ICR mouse model of neutropenic thigh infection assessed as reduction in colony forming unit at 45 mg/kg, iv bid for 12 hrs; format: functional, organism-based
[29] = Ratio of fAUC in Escherichia coli ATCC 25922 infected ICR mouse model of neutropenic thigh infection to MIC for Escherichia coli ATCC […]; format: ADME; settings: 45 mg/kg, 12 h
[30] = fAUC in Escherichia coli ATCC 25922 infected ICR mouse model of neutropenic thigh infection; format: ADME; settings: 45 mg/kg, 12 h

| SMILES | logD [1] | pKa (physchem [2]) | MIC (Escherichia coli [3]) [µg/mL] | MIC (Escherichia coli [4]) [µg/mL] | CLH [6] [µg/mL] | fraction unbound at 5 h, 1 µM [7] | CLint scaled at 0.5 h (in vitro) [mL/min/kg] | solubility (physchem [8]) [µg/mL] | MIC (Escherichia coli [9]) [µg/mL] | MIC (Escherichia coli [10]) [µg/mL] | MIC (Klebsiella pneumoniae [11]) [µg/mL] | MIC (Klebsiella pneumoniae [12]) [µg/mL] | MIC (Klebsiella pneumoniae [13]) [µg/mL] | MIC (Acinetobacter baumannii [14]) [µg/mL] | MIC (Acinetobacter baumannii [15]) [µg/mL] | MIC (Acinetobacter baumannii [16]) [µg/mL] | MIC (Pseudomonas aeruginosa [17]) [µg/mL] | MIC (Pseudomonas aeruginosa [18]) [µg/mL] | MIC (Pseudomonas aeruginosa [19]) [µg/mL] | also measured |
| --- | --- | --- | --- | --- | --- | --- | --- | --- | --- | --- | --- | --- | --- | --- | --- | --- | --- | --- | --- | --- |
| CCNc1cc(F)cc2c1[nH]c1ncc(-c3cncc(CN)c3)c(-n3ccc(C(F)(F)F)n3)c12 | 2.94 | 8.62 | < 0.25 | 1 (≈ 2.13 µM) |  |  |  |  |  |  |  |  |  |  |  |  |  |  |  |  |
| CCNc1cc(F)cc2c1[nH]c1ncc(-c3cnc(OC)nc3)c(-n3cc(CN)c(C(F)(F)F)n3)c12 |  |  |  | 0.31 (≈ 0.619 µM) | 45.3 | 0.027 | < 20.2 | 15 (≈ 30 µM) | 3.13 | 12.5 | < 0.02 | 6.26 | 12.5 | 0.78 | 0.78 | 0.39 | 1.3 | 1.56 | 1.56 | Cmax/dose [20]: 494 kg·ng/mL/mg; AUC/dose [21]: 341 kg·ng·h/mL/mg; clearance [22]: 48 mL/min/kg; half-life [23]: 1.6 h; Vd [24]: 3.6 L/kg; fraction unbound at 24 h [25]: 0.11; Activity (Escherichia coli [26]): Active; Activity (Escherichia coli [27]): Active; Activity (Escherichia coli [28]): Active; fAUC/MIC [29]: >= 6; fAUC [30]: 30000 ng·h/mL |
| CCNc1cc(F)cc2c1[nH]c1ncc(-c3cncc(CO)c3)c(-n3ccc(C(F)(F)F)n3)c12 | 3.56 |  | < 0.016 | 0.5 (≈ 1.06 µM) |  |  |  |  | 1.47 | 1.47 | 0.183 | 1.47 | > 23.5 | 73 | > 23.5 | > 23.5 | 4 | > 23.5 | 1.47 |  |
| CCNc1cc(F)cc2c1[nH]c1ncc(-c3cncnc3)c(-n3ccc(C(F)(F)F)n3)c12 | 3.48 |  | < 0.016 | 0.25 (≈ 0.566 µM) |  |  | 76.1 | < 0.2 | 0.34 | 1.38 | 0.09 | 0.69 | 1.38 | 0.17 | 1.38 | 0.69 | 2 | 1.38 | 0.34 |  |

More lines, main results first:

| logD [1] | pKa (physchem [2]) | MIC (Escherichia coli [3]) [µg/mL] | MIC (Escherichia coli [4]) [µg/mL] | CLH [6] [µg/mL] | fraction unbound at 5 h, 1 µM [7] | CLint scaled at 0.5 h (in vitro) [mL/min/kg] | solubility (physchem [8]) [µg/mL] | MIC (Escherichia coli [9]) [µg/mL] | MIC (Escherichia coli [10]) [µg/mL] | MIC (Klebsiella pneumoniae [11]) [µg/mL] | MIC (Klebsiella pneumoniae [12]) [µg/mL] | MIC (Klebsiella pneumoniae [13]) [µg/mL] | MIC (Acinetobacter baumannii [14]) [µg/mL] | MIC (Acinetobacter baumannii [15]) [µg/mL] | MIC (Acinetobacter baumannii [16]) [µg/mL] | MIC (Pseudomonas aeruginosa [17]) [µg/mL] | MIC (Pseudomonas aeruginosa [18]) [µg/mL] | MIC (Pseudomonas aeruginosa [19]) [µg/mL] | SMILES | also measured |
| --- | --- | --- | --- | --- | --- | --- | --- | --- | --- | --- | --- | --- | --- | --- | --- | --- | --- | --- | --- | --- |
| 2.02 |  | 0.25 (≈ 0.502 µM) | > 8 |  |  |  |  |  |  |  |  |  |  |  |  |  |  |  | CCNc1cc(F)cc2c1[nH]c1ncc(-c3cncc(CC(=O)O)c3)c(-n3ccc(C(F)(F)F)n3)c12 | pKa [5]: 3.51 |
|  | 7.62 |  | 2 (≈ 4.56 µM) | 74.6 | 0.044 | 70.3 | 34 (≈ 77.5 µM) |  |  |  |  |  |  |  |  |  |  |  | CCNc1cc(F)cc2c1[nH]c1ncc(-c3cncc(C#N)c3)c(-n3ncc4c3CNC4)c12 |  |
|  | 8.08 |  | < 0.25 | 48.6 | 0.012 | 47 | 90 (≈ 182 µM) | 1 | 2 | < 0.03 | 4 | 8 | 1 | 1 | 0.5 | 2 |  | 2 | CCNc1cc(F)cc2c1[nH]c1ncc(-c3cncc(C#N)c3)c(-n3cc(CN)c(C(F)(F)F)n3)c12 | Cmax/dose [20]: 305 kg·ng/mL/mg; AUC/dose [21]: 324 kg·ng·h/mL/mg; clearance [22]: 50 mL/min/kg; half-life [23]: 1.8 h; Vd [24]: 5.8 L/kg; fraction unbound at 24 h [25]: 0.11 |
| 3.54 |  | 0.31 (≈ 0.645 µM) | 0.25 (≈ 0.52 µM) |  |  |  |  | 0.75 | 0.75 | 0.38 | 0.75 | 1.5 | 0.38 | 1.5 | 0.75 | 2 | 1.5 | 0.75 | CCNc1cc(F)cc2c1[nH]c1ncc(-c3cnc4ccnn4c3)c(-n3ccc(C(F)(F)F)n3)c12 |  |
